Experimental data reported in patent US9808535B2, “Conjugates for protection from nephrotoxic active substances” (Merck Patent GmbH, priority 2013, dated 2017).
Residues, ends and D or L forms follow the SMILES beside them. ξ: configuration not given here. *: point of attachment. Lipoyl(6ξ) = O=C(CCCCC1CCSS1)*

Experiments:
[1] = infusion, 740 to 900 mg/m^2 of body surface area; cited from earlier work
[2] = mouse, in vivo, iv

Structure (SMILES) | arterial hypotension as severe side effect [1] | kidney specificity [2]
NCCCNCCSP(=O)(O)O [Amifostin] | In over half of patients | 
NCCCCC(NC(=O)C(CCC(=O)O)NC(=O)C(CCC(=O)O)NC(=O)C(CCC(=O)O)NC(=O)C(CCCCNC(=O)CCCCC1CCSS1)NC(=O)C(CCCCN)NC(=O)C(CCCCN)NC(=O)C(CCC(=O)O)NC(=O)C(CCC(=O)O)NC(=O)C(CCC(=O)O)NC(=O)C(CCCCNC(=O)CCCCC1CCSS1)NC(=O)C(CCCCN)NC(=O)C(CCCCN)NC(=O)C(CCC(=O)O)NC(=O)C(CCC(=O)O)NC(=O)C(CCC(=O)O)NC(=O)C(CCCCNC(=O)CCCCC1CCSS1)NC(=O)C(CCCCN)NC(=O)C(CCCCN)NC(=O)C(N)Cc1ccc(O)cc1)C(N)=O (centres unmarked) [y(KKKe(lipoic acid)EEE)3K] (H-YKKK(Lipoyl(6ξ))EEEKKK(Lipoyl(6ξ))EEEKKK(Lipoyl(6ξ))EEEK-NH2; configuration not given here) |  | high kidney specificity
